Measured values taken from patent US10167262B2, “Herbicidal substituted 3-arylpyrazoles” (FMC CORPORATION, priority 2014, dated 2019).

Columns and labels:
Test in all cases: Test C pre-/postemergence greenhouse test, plant response rating 0-100
Format in all cases: in vivo
[1] = system: blackgrass (Alopecurus myosuroides)
How it was run: (§1)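 Plants were scored visually against controls 13–15 days after treatment on a 0–100 scale, 100 meaning complete control. Test chemicals, formulated in surfactant-containing non-phytotoxic solvent, went preemergence onto seeds in loam–sand blend or postemergence onto 1- to 4-leaf plants (2–18 cm) grown in peat-based mix.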

[2] = system: corn (Zea mays)
How it was run: as §1

[3] = system: galium (catchweed bedstraw, Galium aparine)
How it was run: as §1

[4] = system: johnsongrass (Sorghum halepense)
How it was run: as §1

[5] = system: lambsquarters (Chenopodium album)
How it was run: as §1

[6] = system: large (Lg) crabgrass (Digitaria sanguinalis)
How it was run: as §1

[7] = system: morningglory (Ipomoea coccinea)
How it was run: as §1

[8] = system: pigweed (Amaranthus retroflexus)
How it was run: as §1

[9] = system: ragweed (common ragweed, Ambrosia elatior)
How it was run: as §1

[10] = system: velvetleaf (Abutilon theophrasti)
How it was run: as §1

[11] = system: winter wheat (Triticum aestivum)
How it was run: as §1

[12] = system: yellow nutsedge (Cyperus esculentus)
How it was run: as §1

[13] = Postemergence, 250 g ai/ha, scale 0 to 100
[14] = Postemergence, 500 g ai/ha, scale 0 to 100
[15] = Preemergence, 0 to 100 scale (0 no effect, 100 complete control), rate 500 g ai/ha per head r3, sub-head of this section not shown

## O=C(c1ccccc1)c1cn(S(=O)(=O)CC(F)(F)F)nc1-c1cc(Cl)cc(Cl)c1 [Compound 3]
[1]; Postemergence, 62 g ai/ha
  Plant response rating (0 to 100), Blackgrass: 0
[1]; Postemergence, 125 g ai/ha, scale 0 to 100
  Plant response rating, Blackgrass: 0
[1]; [13]
  Plant response rating, Blackgrass: 0
[1]; [14]
  Plant response rating, Blackgrass: 0
[1]; Preemergence, 62 g ai/ha
  Plant response rating, Blackgrass: 0
[1]; Preemergence, 125 g ai/ha
  Plant response rating, Blackgrass: 0
[1]; Preemergence, 250 g ai/ha
  Plant response rating, Blackgrass: 0
[1]; Preemergence, 500 g ai/ha
  Plant response rating, Blackgrass: 0
[2]; Postemergence, 62 g ai/ha
  Plant response rating (0 to 100), Corn: 0
[2]; Postemergence, 125 g ai/ha
  Plant response rating (0 to 100), Corn: 5
[2]; [13]
  Plant response rating, Corn: 5
[2]; [14]
  Plant response rating, Corn: 5
[2]; Preemergence, 62 g ai/ha
  Plant response rating, Corn: 0
[2]; Preemergence, 125 g ai/ha
  Plant response rating, Corn: 0
[2]; Preemergence, 250 g ai/ha
  Plant response rating, Corn: 0
[2]; Preemergence, 500 g ai/ha
  Plant response rating, Corn: 0
[3]; Postemergence, 62 g ai/ha
  Plant response rating (0 to 100), Galium: 0
[3]; Postemergence, 125 g ai/ha
  Plant response rating (0 to 100), Galium: 0
[3]; [13]
  Plant response rating, Galium: 20
[3]; [14]
  Plant response rating, Galium: 30
[3]; Preemergence, 62 g ai/ha
  Plant response rating, Galium: 0
[3]; Preemergence, 125 g ai/ha
  Plant response rating, Galium: 0
[3]; Preemergence, 250 g ai/ha
  Plant response rating, Galium: 0
[3]; Preemergence, 500 g ai/ha
  Plant response rating, Galium: 0
[4]; Postemergence, 62 g ai/ha
  Plant response rating (0 to 100), Johnsongrass: 0
[4]; Postemergence, 125 g ai/ha
  Plant response rating (0 to 100), Johnsongrass: 0
[4]; [13]
  Plant response rating, Johnsongrass: 0
[4]; [14]
  Plant response rating, Johnsongrass: 0
[4]; Preemergence, 62 g ai/ha
  Plant response rating, Johnsongrass: 0
[4]; Preemergence, 125 g ai/ha
  Plant response rating, Johnsongrass: 0
[4]; Preemergence, 250 g ai/ha
  Plant response rating, Johnsongrass: 0
[4]; Preemergence, 500 g ai/ha
  Plant response rating, Johnsongrass: 0
[5]; Postemergence, 62 g ai/ha
  Plant response rating (0 to 100), Lambsquarters: 55
[5]; [13]
  Plant response rating, Lambsquarters: 80
[5]; [14]
  Plant response rating, Lambsquarters: 100
[5]; Preemergence, 62 g ai/ha
  Plant response rating, Lambsquarters: 100
[5]; Preemergence, 125 g ai/ha
  Plant response rating, Lambsquarters: 100
[5]; Preemergence, 250 g ai/ha
  Plant response rating, Lambsquarters: 100
[5]; Preemergence, 500 g ai/ha
  Plant response rating, Lambsquarters: 100
[6]; Postemergence, 62 g ai/ha
  Plant response rating (0 to 100), Crabgrass, Large: 0
[6]; Postemergence, 125 g ai/ha
  Plant response rating (0 to 100), Crabgrass, Large: 5
[6]; [13]
  Plant response rating, Crabgrass, Large: 5
[6]; [14]
  Plant response rating, Crabgrass, Large: 5
[6]; Preemergence, 62 g ai/ha
  Plant response rating, Crabgrass, Large: 0
[6]; Preemergence, 125 g ai/ha
  Plant response rating, Crabgrass, Large: 0
[6]; Preemergence, 250 g ai/ha
  Plant response rating, Crabgrass, Large: 0
[6]; Preemergence, 500 g ai/ha
  Plant response rating, Crabgrass, Large: 0
[7]; Postemergence, 62 g ai/ha
  Plant response rating (0 to 100), Morningglory: 0
[7]; Postemergence, 125 g ai/ha
  Plant response rating (0 to 100), Morningglory: 0
[7]; [13]
  Plant response rating, Morningglory: 0
[7]; [14]
  Plant response rating, Morningglory: 0
[7]; Preemergence, 62 g ai/ha
  Plant response rating, Morningglory: 0
[7]; Preemergence, 125 g ai/ha
  Plant response rating, Morningglory: 0
[7]; Preemergence, 250 g ai/ha
  Plant response rating, Morningglory: 10
[7]; Preemergence, 500 g ai/ha
  Plant response rating, Morningglory: 10
[8]; Postemergence, 62 g ai/ha
  Plant response rating (0 to 100), Pigweed: 85
[8]; Postemergence, 125 g ai/ha
  Plant response rating (0 to 100), Pigweed: 95
[8]; [13]
  Plant response rating, Pigweed: 100
[8]; Preemergence, 62 g ai/ha
  Plant response rating, Pigweed: 30
[8]; Preemergence, 125 g ai/ha
  Plant response rating, Pigweed: 100
[8]; Preemergence, 250 g ai/ha
  Plant response rating, Pigweed: 100
[8]; Preemergence, 500 g ai/ha
  Plant response rating, Pigweed: 100
[9]; Postemergence, 62 g ai/ha
  Plant response rating (0 to 100), Ragweed: 20
[9]; Postemergence, 125 g ai/ha
  Plant response rating (0 to 100), Ragweed: 25
[9]; [13]
  Plant response rating, Ragweed: 65
[9]; [14]
  Plant response rating, Ragweed: 65
[9]; Preemergence, 62 g ai/ha
  Plant response rating, Ragweed: 0
[9]; Preemergence, 125 g ai/ha
  Plant response rating, Ragweed: 0
[9]; Preemergence, 250 g ai/ha
  Plant response rating, Ragweed: 70
[9]; Preemergence, 500 g ai/ha
  Plant response rating, Ragweed: 95
[9]; [15]
  Plant response rating, Ragweed: 35
[10]; Postemergence, 62 g ai/ha
  Plant response rating (0 to 100), Velvetleaf: 70
[10]; Postemergence, 125 g ai/ha
  Plant response rating (0 to 100), Velvetleaf: 70
[10]; [13]
  Plant response rating, Velvetleaf: 75
[10]; [14]
  Plant response rating, Velvetleaf: 85
[10]; Preemergence, 62 g ai/ha
  Plant response rating, Velvetleaf: 50
[10]; Preemergence, 250 g ai/ha
  Plant response rating, Velvetleaf: 55
[10]; Preemergence, 500 g ai/ha
  Plant response rating, Velvetleaf: 100
[10]; [15]
  Plant response rating, Velvetleaf: 20
[11]; Postemergence, 62 g ai/ha
  Plant response rating (0 to 100), Wheat: 0
[11]; Postemergence, 125 g ai/ha
  Plant response rating (0 to 100), Wheat: 0
[11]; [13]
  Plant response rating, Wheat: 0
[11]; [14]
  Plant response rating, Wheat: 0
[11]; Preemergence, 62 g ai/ha
  Plant response rating, Wheat: 0
[11]; Preemergence, 125 g ai/ha
  Plant response rating, Wheat: 0
[11]; Preemergence, 250 g ai/ha
  Plant response rating, Wheat: 0
[11]; Preemergence, 500 g ai/ha
  Plant response rating, Wheat: 0
[11]; Preemergence, 0 to 100 scale (0 no effect, 100 complete control), rate 500 g ai/ha
  Plant response rating, Wheat: 0
[12]; Postemergence, 62 g ai/ha
  Plant response rating (0 to 100), Nutsedge, Yellow: 0
[12]; Postemergence, 125 g ai/ha
  Plant response rating (0 to 100), Nutsedge, Yellow: 0
[12]; [13]
  Plant response rating, Nutsedge, Yellow: 0
[12]; [14]
  Plant response rating, Nutsedge, Yellow: 0
[12]; Preemergence, 62 g ai/ha
  Plant response rating, Nutsedge, Yellow: 0
[12]; Preemergence, 125 g ai/ha
  Plant response rating, Nutsedge, Yellow: 0
[12]; Preemergence, 250 g ai/ha
  Plant response rating, Nutsedge, Yellow: 0
[12]; Preemergence, 500 g ai/ha
  Plant response rating, Nutsedge, Yellow: 0
